This is an account of results in publication PMC8201677, “Calycosin-loaded nanoliposomes as potential nanoplatforms for treatment of diabetic nephropathy through regulation of mitochondrial respiratory function” (Journal of Nanobiotechnology, 2021).

Each structure is given as a SMILES string.

The test system of data set [1] is mitochondria in kidney cells of diabetic rats. Nature of the data set: Lipid peroxidation (MDA) by TBARS analysis in diabetic rats. The data set is classed as in vivo, Sprague–Dawley rats. As to conditions: streptozotocin diabetic rats, treated 4 weeks.
Data set [2] shares this test system. Nature of the data set: ROS measurement by DCFH-DA assay in diabetic rats. The format is in vivo, Sprague–Dawley rats. Conditions: streptozotocin diabetic rats, treated 4 weeks. As for the experimental part:
(§1) Diabetes was induced in mice by injecting streptozotocin purchased from Sigma (USA). Streptozotocin was dissolved in a citrate buffer (pH 6.5, 0.1 M) and injected at a dose of 65 mg/kg intraperitoneally. Blood glucose was measured before the test and one week after streptozotocin injection, and mice with blood glucose above […] were considered diabetic. The calycosin or calycosin-loaded nanoliposomes were dissolved in PBS until it was ready to be injected, and the mice received […] of calycosin-loaded nanoliposomes for 4 weeks after becoming diabetic. Vitamin E (100 mg/kg) was also used as a positive control group. Animals were randomly divided in 5 groups which each group consisted of 6 male mice. […] Protein concentration was measured as standard using bovine serum albumin (BSA). […] Then, the fluorescence intensity of the samples was read at λex/λem of 485 nm/530 nm using a spectrofluorometer (CLARIOstar, Offenburg, Germany).

Data set [3] in a line: Pharmacokinetics in rats after oral administration. The data set is classed as in vivo. As to conditions: male, Sprague-Dawley, rat, single dose 30 mg/kg calycosin, plasma. The protocol:
[…] male Sprague–Dawley rats were randomly divided into three groups ([…]) as control, treated with calycosin, and treated with calycosin-loaded nanoliposomes (dissolved in 1% ethanol). The doses of calycoin groups were 30 mg/kg for oral administration. After the rats were intragastrically administered with free or Nano-formulated calycosin, the 0.5 mL blood was taken from the fundus venous plexus of each rat at different time intervals. The blood samples were then centrifuged (4000 rpm, 10 min), and the plasma was removed and to stored − 80 °C. The content of the drug in the plasma sample was then calculated by the established LC-MS/MS method based on the previous report.

Data set [4] relates to mitochondria in kidney cells of diabetic rats. Nature of the data set: MTT assay of mitochondrial viability in diabetic rats. The data set is classed as in vivo, Sprague–Dawley rats. Conditions: streptozotocin diabetic rats, treated 4 weeks. As for the experimental part: as §1, with “100 µl of mitochondrial supernatants were mixed by MTT stock solution (5 mg mL^−1) for 4 h, followed by removing” for “Then,”, “supernatants, addition of 150 μL DMSO for 5 min, and reading the absorbance” for “fluorescence intensity”, “samples” for “samples was read”, “570” for “λex/λem of 485 nm/530”, “microplate reader (BIO-RAD microplate reader-550).” for “spectrofluorometer (CLARIOstar, Offenburg, Germany).”
(In general: Tetrazolium assays rely on reduction of a dye to a coloured formazan, in cell work by metabolically active cells.)

Data set [5] can be described thus: In vitro drug release in dialysis media (simulated gastric, intestinal and physiological fluid). The format is physicochemical. The protocol:
The EE and DL of the prepared calycosin-loaded nanoliposomes were determined by the dialysis method described previously. Briefly, 700 μL of the prepared calycosin-loaded nanoliposomes solution was added into a dialysis bag (cutoff of 8000), followed by putting into 20 mL of dialysis medium (PBS, pH 7.4). The samples were then shacked (10 h), and centrifuged (3000 rpm, 2 min) to determine the free calycosin concentration in the supernatant. Also, 500 µL of the calycosin-loaded nanoliposomes were added by 1500 μL of methanol, vortexed ([…]), sonicated (5 min), centrifuged (3000 rpm, 2 min) to calculate the total calycosin concentration (C0). 20 mL of the prepared calycosin-loaded nanoliposomes powder (V0) was weighted to calculate the solid powder mass (W0). 25 µl of the sample was injected into a HPLC system containing Phenomenex ODS analytical column (150 mm × 4.6 mm, 5 μm) with a guard column (30 mm × 10 mm, 3 μm) at 40 °C. The mobile phase was a mixture of methanol: double distilled water as follows:0.05 M KH2PO4 = 40:60:5, pH 4.0, with a flow rate of 1.0 ml/min [37]. The simulated gastric fluid was 0.1 mol/L HCl (100 mM, pH 1.2) supplemented with 0.5% Tween-80, the simulated intestinal fluid was PBS buffer (25 mM, pH 6.9) containing 0.5% Tween-80, and the simulated physiological buffer was PBS (150 mM, pH 7.4) containing 0.5% Tween-80. The cumulative drug release was then determined using the following equation [35]: Cumulative release rate%=[V1×(C1⋯+Ci1)+V2×Ci]/Vo×Co×100 where, V1 is the sampling amount, V2 is the volume of the dialysis medium, C1–Ci is the concentration of calycosin at each time point, and V0 and C0 are the volume and concentration of calycosin-loaded nanoliposomes added to the dialysis bag. Stability of calycosin-loaded nanoliposomes was explored for about two months at 37 °C by using particle size and encapsulation efficiency of the reconstituted nanoliposome.

Data set [6] is described as follows: Dissolution study in PBS pH 7.4. The data set is classed as physicochemical. As for the experimental part:
The dissolution studies were performed based on the previous study. Briefly, the dissolution medium (pH 7.4, PBS, 900 ml) under stirring (100 rpm) was added by calycosin-loaded nanoliposomes which is equivalent to 50 mg of drug and at different time intervals, 15 mL samples were removed, replaced, filtrated ([…]), and dissolved in mixed solvent (methanol: distilled water = 5.5:3.5, v/v). Finally, 25 µl of the sample was injected into a HPLC system. The rest of the setup was similar to the above-mentioned explanations.

Usually AUC(0-inf) stands for the area under the concentration-time curve extrapolated to infinity. A low value points to less exposure. The term AUC(0-t) denotes exposure summed from dosing to a finite time, without extrapolation to infinity. In general, Cmax refers to the highest concentration seen after dosing. By Tmax is commonly meant the time at which the peak concentration occurs. Usually half-life stands for the time in which the quantity being followed falls by half. Lower therefore signals rapid decline. In the case of `COc1ccc(-c2coc3cc(O)ccc3c2=O)cc1O` [calycosin], the “MDA level (lipid peroxidation)” value in data set [1] was “remarkable decrease in lipid peroxidation”. Besides, the “generation of ROS (DCF fluorescence intensity)” value in data set [2] is recorded as “potentially reduced the generation of ROS”. In addition, the AUC(0-inf) in data set [3] came out at 421 ± 73.3 ng·h/mL. In data set [3], this compound returned an AUC(0-t) of 409 ± 67.3 ng·h/mL. Further, in data set [3], the peak level (Cmax) was 298 ± 35.8 ng/mL. In data set [3], the Tmax was determined as 0.19 ± 0.017 h. The same compound gave a half-life in data set [3] of 6.98 ± 0.96 h. Besides, the MRT last in data set [3] (read-out: MRT0−t) was determined as 8.68 ± 1.27 h. The “mitochondrial viability (MTT) in comparison with diabetic rats” value in data set [4] is given as “significant recovery of mitochondrial viability”. In addition, the “time of (almost) complete / 100% release” value in data set [5] (simulated gastric medium pH 1.2) is around 20 h; in data set [5] (simulated intestinal fluid pH 6.9), around 100 h; in data set [5] (simulated physiological fluid pH 7.4) it was around 120 h. Also, the cumulative release entry is on record as “about 32%” in data set [5] (simulated gastric medium pH 1.2, 1 h); “about 32%” in data set [5] (simulated intestinal fluid pH 6.9, 1 h); 90% in data set [5] (simulated intestinal fluid pH 6.9, 20 h); “about 7%” in data set [5] (simulated physiological fluid pH 7.4, 1 h); 55% in data set [5] (simulated physiological fluid pH 7.4, 20 h). Besides, the dissolution rate result in data set [6] was “low”.
